{"source": "patent US20210198259A1", "about": "“HETEROCYCLIC DERIVATIVES AND USE THEREOF” (C&C RESEARCH LABORATORIES, priority 2018, published 2021)", "key": {"ICR mice": {"test_system": "ICR mice", "experiment": "Histamine-induced itching model in ICR mice", "format": "in vivo, mouse", "conditions": "50 mg/kg oral, scratches counted for 20 minutes", "description": "Female, ICR mice (8 weeks old) were purchased from OrientBio Co., Ltd. The animals were housed under conditions of controlled temperature (23±3° C.), humidity (50±5%) and lighting with food and water available ad libitum. Water and food were stopped 1 hour before the experiment.\nFor easy intradermal injection of pruritogen (histamine, dissolved in saline injection solution to make the concentration of 300 nmol per 40 μL) the hair was clipped using clippers (8000AD, THRIVE) over the rostral part of the back 24 hours before the experiment under inhalation anesthesia with isoflurane. Mice (n=10 per group) were divided into 5 groups (normal group, control group and 3 experimental groups). […] At the end of the filming, the number of scratches of the test animals was counted during 20 minutes after histamine administration using the recorded video. The number of scratches was counted a series of actions from scratching with the rear foot of the animal to the time of taking the rear foot to the mouth as one time (J. Allergy Clin. Immunol. 2007, 19(1), 176-183). All data were analyzed by using Excel and Prism, and the number of scratching of each group is expressed as the mean±S.E.M. The inhibitory effect of compounds is shown as a percentage of the maximal response to histamine (100% control group). Statistical analysis was analyzed using one-way ANOVA with Dunnett test. […]"}, "[1]": {"molecular_target": "T1, human histamine 4 receptor (hH4R) (Homo sapiens, UniProt Q9H3N8)", "T1 construct": "purchased Multispan", "T1 sequence (Q9H3N8 whole entry)": "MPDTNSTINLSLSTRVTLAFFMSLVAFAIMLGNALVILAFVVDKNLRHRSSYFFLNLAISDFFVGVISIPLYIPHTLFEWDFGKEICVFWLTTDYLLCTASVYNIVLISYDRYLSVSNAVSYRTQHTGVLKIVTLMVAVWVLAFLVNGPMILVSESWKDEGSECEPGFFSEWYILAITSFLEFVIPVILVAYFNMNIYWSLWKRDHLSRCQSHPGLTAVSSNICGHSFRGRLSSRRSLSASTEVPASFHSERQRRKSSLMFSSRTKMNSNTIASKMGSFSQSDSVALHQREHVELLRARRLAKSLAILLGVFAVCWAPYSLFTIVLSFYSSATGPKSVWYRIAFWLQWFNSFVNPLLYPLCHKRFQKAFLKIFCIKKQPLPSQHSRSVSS", "experiment": "Binding affinity of human histamine 4 receptor (hH4R), [3H] histamine displacement", "conditions": "[3H] labeled histamine, hH4R-overexpressed cell membrane", "description": "The compounds prepared in the above Examples, the compound of Example 55 of International Publication No. WO 2010/030785 and the compound of Example 4 of International Publication No. WO 2013/048214 were diluted by 1,000 fold (v/w) with DMSO, and then 1 mL of the diluted compound solution was mixed with 99 mL of the analysis buffer solution (50 mM tris-HCl pH 7.4, 5 mM EDTA) to obtain concentration of 1 μM. […] of the prepared compound solution was transferred to each well of a 96-well plate, and then 20 mL of 100 μM histamine diluted with analysis buffer solution and 1% DMSO were transferred to each well to calculate non-specific binding and total binding degree. 15 μg of human histamine 4 receptor-overexpressed cell membrane (Multispan) was diluted into […] of analysis buffer solution and that was transferred to each well. [^3H] labeled histamine (PerkinElmer) was diluted into 10 nM concentration, 20 mL was allocated in each well, and then it was kept in a 27° C. incubator for 30 minutes. After the reaction, 100 mL of the mixture was transferred to a glass fiber plate in which 0.5% polyethylene amine was pre-soaked, and then non-binding [^3H] labeled histamine was removed in vacuum. After 6 times washing with 200 mL of washing buffer solution (50 mM tris-HCl, pH 7.4), the plate was dried in a 37° C. oven for 18 hours. […] of betaScint cocktail solution was added to each well, and after 10 minutes CPM (count per minute) value of [^3H] labeled histamine was measured by the use of Micro beta2™. The binding affinity (% inhibition) of the human histamine 4 receptor for the compounds of the present invention was analyzed by an Excel program, and the results of analysis are represented in Table 1."}, "[2]": {"experiment": "Test for pharmacokinetics in ICR mice (oral)", "format": "in vivo", "conditions": "50 mg/kg, ICR mouse, 5 mg/mL solution at 10 mL/kg, plasma", "description": "As the administration solution for mice of the compounds prepared in the above\nExamples, the compound of Example 55 of International Publication No. WO 2010/030785 and the compound of Example 4 of International Publication No. WO 2013/048214, 20% hydroxypropyl-β-cyclodextrin solution (99.75%) and 2N HCl (0.25%) were added sequentially to make 5 mg/mL. Provided that in the case of the compound of Example 10, 99.5% of 20% hydroxypropyl-β-cyclodextrin solution and 0.5% of 2N HCl […] were added.\nThe weight of each ICR mouse was properly 20-30 g. Dosage of the compound of the present invention was 10 mL/kg, and administered orally using Zonde. Blood collection was performed at 0.5, 1, 2, 4, 7 and 24 hours by orbital venous blood collection using a capillary tube coated with an anticoagulant, and then plasma was isolated using a centrifuge and kept in a freezer.\nPlasma collected from animals and standard concentration material were pre-treated using solid-phase extraction, and concentration of the compound of the invention was determined using a liquid chromatography mass spectrometer (Agilent HPLC, API-4000 Qtrap). According to the resulting concentration value, the pharmacokinetics parameter was found using WinNonlin (Version 7.0) and half-life (t1/2), maximum blood concentration (Cmax) and area under the curve (AUCall) are represented in Table 2."}}}
{"smiles": "CNC1CN(C2=Nc3ccc(Br)cc3N3CC(=O)N=C23)C1", "note": "[Example 13, 8-bromo-4-(3-(methylamino)azetidin-1-yl)imidazo[1,2-a]quinoxalin-2(1H)-one]", "values": [{"measurement": "Inhibitory rate (%) After 30 minutes", "setting": "ICR mice; histamine given 30 minutes after dosing", "result": 131, "unit": "%"}, {"measurement": "Inhibitory rate (%) After 7 hours", "setting": "ICR mice; histamine given 7 hours after dosing", "result": 99.0, "unit": "%"}, {"measurement": "Human histamine 4 receptor (hH4R) binding affinity (% inhibition at 1 μM)", "setting": "[1]", "result": 95.8, "unit": "%"}, {"measurement": "AUC", "setting": "[2]", "result": 30500, "unit": "ng·h/mL"}, {"measurement": "Cmax", "setting": "[2]", "result": 2500, "unit": "ng/mL"}]}
{"smiles": "CN1CCN(C2=Nc3ccc(Br)cc3N3CC(=O)N=C23)CC1", "note": "[Example 12, 8-bromo-4-(4-methylpiperazin-1-yl)imidazo[1,2-a]quinoxalin-2(1H)-one]", "values": [{"measurement": "inhibition at 1 µM", "setting": "[1]", "result": 101, "unit": "%"}, {"measurement": "AUC", "setting": "[2]", "result": 1390, "unit": "ng·h/mL"}, {"measurement": "Cmax", "setting": "[2]", "result": 570, "unit": "ng/mL"}, {"measurement": "half-life", "setting": "[2]", "result": 1.73, "unit": "h"}]}
{"smiles": "CN1CCN(C2=Nc3ccc([N+](=O)[O-])cc3N3CC(=O)N=C23)CC1", "note": "[Example 10, 4-(4-methylpiperazin-1-yl)-8-nitroimidazo[1,2-a]quinoxalin-2(1H)-one]", "values": [{"measurement": "inhibition at 1 µM", "setting": "[1]", "result": 98.1, "unit": "%"}, {"measurement": "AUC", "setting": "[2]", "result": 920, "unit": "ng·h/mL"}, {"measurement": "Cmax", "setting": "[2]", "result": 360, "unit": "ng/mL"}, {"measurement": "half-life", "setting": "[2]", "result": 2.04, "unit": "h"}]}
{"smiles": "CN1CCN(C2=Nc3ncc(Br)cc3N3CC(=O)N=C23)CC1", "note": "[Example 1, 8-bromo-4-(4-methylpiperazin-1-yl)imidazo[1,2-a]pyrido[2,3-e]pyrazin-2(1H)-one]", "values": [{"measurement": "inhibition at 1 µM", "setting": "[1]", "result": 79.7, "unit": "%"}, {"measurement": "AUC", "setting": "[2]", "result": 8650, "unit": "ng·h/mL"}, {"measurement": "Cmax", "setting": "[2]", "result": 2280, "unit": "ng/mL"}, {"measurement": "half-life", "setting": "[2]", "result": 3.81, "unit": "h"}]}
